Results reported in patent US20240043435A1, “TYK-2 INHIBITOR” (BEIGENE, LTD., priority 2020, published 2024).

What was measured:
[1] = target: T1, TYK2-JH2 (aa 575-869, in-house) protein (Homo sapiens, UniProt P29597); experiment: TYK2-JH2 biochemical assay (HTRF probe displacement); type: binding; conditions: Biochemical assay; read-out: TYK2-JH2 IC50
T1 construct: TYK2-JH2 (aa 575-869, in-house) protein; made in house
Experimental: Assay A: TYK2-JH2 Biochemical Assay
Compounds disclosed herein were tested for blocking of TYK2-JH2 (aa 575-869, in-house) protein with its probe in an assay based on Homogeneous Time Resolved Fluorescence. Compound dilution is done according to the following protocol: (1) Prepare 500× compounds solution in DMSO from 500 uM by 5-fold dilution, total 10 doses were included; (2) Prepare 10× compounds solution in an assay buffer containing 20 mM HEPES, pH 7.5, 10 mM MgCl2, 0.005% BSA, 2 mM DTT, 0.015% Brij-35 by transferring 1 μl serial 500× stock solution into 49 μl assay buffer. […] of 0.2 nM recombinant TYK2-JH2 protein was pre-incubated with 1 μl of 10× serial dilution of compounds at room temperature for 0.5 hour. […] The HTRF signals (ex337 nm, em620 nm/665 nm) were read on BMG PHERAstar FS instrument. The inhibition percentage of TYK2 interaction with its probe in presence of increasing concentrations of compounds was calculated based on the ratio of fluorescence at 615 nm to that at 665 nm. The IC50 for each compound was derived from fitting the data to the four-parameter logistic equation by Dotmatics.

pSTAT5/GM-CSF = pSTAT5/GM-CSF cellular assay (JAK2 selectivity); type: cell-based; conditions: for Selectivity fold (TYK2/JAK2): pSTAT5/GM-CSF IC50 over pSTAT4/IL-12 IC50
[2] = test system: JAK2, TYK2/p-STAT4 (Tyr693) activated by IL-12 in NK-92 cell line; experiment: IL-12-JAK2, TYK2/p-STAT4 (Tyr693) inhibition IC50 cellular assay; type: cell-based; conditions: for IC50: NK92, Cellular assay, read-out: pSTAT4/IL-12 IC50
Source text: Assay C: IL-12-JAK2, TYK2/p-STAT4 (Tyr693) Inhibition IC50 Cellular Assay
To evaluate the inhibition effect of compounds disclosed herein on JAK2, TYK2/p-STAT4 (Tyr693) activated by IL-12 in NK-92 cell line, NK-92 cells were collected and washed 3 times by DPBS and resuspended in MEM-α (GIBCO, Cat #12561056) with 10% FBS (Gibco, Cat #10099, Lot #1891605), without IL-2 (R&D systems, Cat #202-IL), starved overnight. Cells were collected and resuspended in 1640 medium (phenol red free, Gibco, Cat #11835-030) with 0.1% BSA, and 12.5 μl/5×10^4/well cell suspension were seeded to the 96-well plate (Corning, Cat #3799). Then cells were treated with compounds diluted in 0.2% DMSO 1640 medium, at 37° C., 1 h. Dilution is done according to the following protocol: (1) make 500× compounds solution in DMSO from 5 mM by 4-fold dilution, total 8 doses were included; (3) make 2× compounds solution in assay medium by transferring 0.5 μl serial 500× stock solution into 125 μl assay medium; (4) 15 μl of 2× serial solution is added to cells and incubate at 37° C. for 1 h, the final compound conc. is 10000, 2500, 625, 156.25, 39, 9.8, 2.4 and 0.61 nM, respectively. After 1 h, cells were treated with 2.5 μl medium containing IL-12 at 37° C. (R&D systems, Cat #219-IL-005, final conc. 40 ng/ml), 30 min. Following cells were lysed with 7.5 μl lysis buffer at RT, shaking on shaker for 1 h. 10 μL of cell lysate were transferred to a PE 384-well Proxiplate detection plate, and 5 μL of pre-mixed Alphascreen beads were added to each well. Covered the plate with a plate sealer, span 1000 rpm for 1 min, mix, Incubated overnight at room temperature. Read on BMG PheraStar with Alphascreen protocol. IC 50 values were calculated by fitting dependent data to the four-parameter logistic model using dotmatics software. The assay was performed by using AlphaLISA SureFire Ultra p-STAT4 (Tyr693) Assay Kit—High Volume (PE, Cat #ALSU-PST4-A-HV).

T1 sequence (P29597 575-869): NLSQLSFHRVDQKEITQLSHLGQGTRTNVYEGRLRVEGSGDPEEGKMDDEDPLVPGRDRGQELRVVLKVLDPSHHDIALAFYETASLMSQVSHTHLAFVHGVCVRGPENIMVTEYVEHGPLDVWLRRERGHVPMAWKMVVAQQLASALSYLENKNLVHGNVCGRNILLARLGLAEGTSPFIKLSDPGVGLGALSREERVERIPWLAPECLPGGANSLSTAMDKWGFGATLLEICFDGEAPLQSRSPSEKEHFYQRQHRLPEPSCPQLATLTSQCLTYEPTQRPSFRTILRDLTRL

Row | Structure (SMILES) | IC50 [1] [nM] | further results
1 | COC(C)c1cc(Nc2cc(NC(C)=O)ncc2-c2ccc(N3C[C@@H](C)O[C@@H](C)C3)cn2)nc(S(C)(=O)=O)c1 (single isomer, unassigned) [Example C19, N-(5-((cis)-2,6-dimethylmorpholino)-4′-((4-((R or S)-1-methoxyethyl)-6-(methylsulfonyl)pyridin-2-yl)amino)-[2,3′-bipyridin]-6′-yl)acetamide] | 0.023 | 
2 | COC(C)c1cc(Nc2cc(NC(C)=O)ncc2-c2ccc(N3C[C@@H](C)O[C@@H](C)C3)cn2)nc(S(C)(=O)=O)c1 (single isomer, unassigned) [Example C20, N-(5-((cis)-2,6-dimethylmorpholino)-4′-((4-((R or S)-1-methoxyethyl)-6-(methylsulfonyl)pyridin-2-yl)amino)-[2,3′-bipyridin]-6′-yl)acetamide] | 0.023 | 
3 | CC(=O)Nc1cc(Nc2cccc(S(C)(=O)=O)n2)c(-c2cnn(C)c2)cn1 [Example A8, N-(5-(1-methyl-1H-pyrazol-4-yl)-4-((6-(methylsulfonyl)pyridin-2-yl)amino)pyridin-2-yl)acetamide] | 0.26 | 
4 | CC(=O)Nc1cc(Nc2cc(C)cc(S(C)(=O)=O)n2)c(-c2ccn(CC(=O)N3CCOCC3)n2)cn1 [Example A13, N-(4-((4-methyl-6-(methylsulfonyl)pyridin-2-yl)amino)-5-(1-(2-morpholino-2-oxoethyl)-1H-pyrazol-3-yl)pyridin-2-yl)acetamide] | 0.08 | 
5 | CC(=O)Nc1cc(Nc2cc(OC(C)C)cc(S(C)(=O)=O)n2)c(-n2ccnc2)cn1 [Example A18, N-(5-(1H-imidazol-1-yl)-4-((4-isopropoxy-6-(methylsulfonyl)pyridin-2-yl)amino)pyridin-2-yl)acetamide] | 8.15 | 
6 | CC(=O)Nc1cc(Nc2cccc(S(C)(=O)=O)n2)c(-c2cccnc2)cn1 [Example B2, N-(4-((6-(methylsulfonyl)pyridin-2-yl)amino)-[3,3′-bipyridin]-6-yl)acetamide] | 5.8 | 
7 | COCCOc1cc(Nc2cc(NC(C)=O)ncc2-c2ccccn2)nc(S(C)(=O)=O)c1 [Example B6, N-(4′-((4-(2-methoxyethoxy)-6-(methylsulfonyl)pyridin-2-yl)amino)-[2,3′-bipyridin]-6′-yl)acetamide] |  | IC50 (pSTAT5/GM-CSF): > 10000 nM; Selectivity fold (TYK2/JAK2) ([2]; Cellular assay, pSTAT5/GM-CSF IC50 vs pSTAT4/IL-12 IC50): >8264 fold; IC50 [2]: 1.21 nM
8 | CC(=O)Nc1cc(Nc2cccc(S(C)(=O)=O)c2)c(-c2cc(C(C)(C)O)ccn2)cn1 [Example B9, N-(4-(2-hydroxypropan-2-yl)-4′-((3-(methylsulfonyl)phenyl)amino)-[2,3′-bipyridin]-6′-yl)acetamide] | 0.53 | 
9 | CC(=O)Nc1cc(Nc2cc(C)cc(S(C)(=O)=O)n2)c(-c2cc(C(C)(C)O)ccn2)cn1 [Example B10, N-(4-(2-hydroxypropan-2-yl)-4′-((4-methyl-6-(methylsulfonyl)pyridin-2-yl)amino)-[2,3′-bipyridin]-6′-yl)acetamide] | 0.045 | 
10 | CC(=O)Nc1cc(Nc2cccc(S(C)(=O)=O)c2)c(-c2ccc(N3CCOCC3)cn2)cn1 [Example B11, N-(4′-((3-(methylsulfonyl)phenyl)amino)-5-morpholino-[2,3′-bipyridin]-6′-yl)acetamide] | 0.019 | 
11 | CC(=O)Nc1cc(Nc2cc(C)cc(S(C)(=O)=O)c2)c(-c2ccc(C(F)(F)F)cn2)cn1 [Example F3, N-(4′-((3-methyl-5-(methylsulfonyl)phenyl)amino)-5-(trifluoromethyl)-[2,3′-bipyridin]-6′-yl)acetamide] | 0.068 | 
12 | CC(=O)Nc1cc(Nc2cc(C#N)cc(S(C)(=O)=O)c2)c(-c2ccc(C(F)(F)F)cn2)cn1 [Example F4, N-(4′-((3-cyano-5-(methylsulfonyl)phenyl)amino)-5-(trifluoromethyl)-[2,3′-bipyridin]-6′-yl)acetamide] | 0.324 | 
13 | CC(=O)Nc1cc(Nc2cc(O[C@H]3C[C@H](O)C3)cc(S(C)(=O)=O)c2)c(-c2ccc(C(F)(F)F)cn2)cn1 [Example F5, N-(4′-((3-((trans)-3-hydroxycyclobutoxy)-5-(methylsulfonyl)phenyl)amino)-5-(trifluoromethyl)-[2,3′-bipyridin]-6′-yl)acetamide] | 0.061 | 
14 | CC(=O)Nc1cc(Nc2cc(OCC3CC3)cc(S(C)(=O)=O)c2)c(-c2ccc(C(F)(F)F)cn2)cn1 [Example F6, N-(4′-((3-(cyclopropylmethoxy)-5-(methylsulfonyl)phenyl)amino)-5-(trifluoromethyl)-[2,3′-bipyridin]-6′-yl)acetamide] | 0.532 | 
15 | CC(=O)Nc1cc(Nc2cc(OCCO)cc(S(C)(=O)=O)c2)c(-c2ccc(C(F)(F)F)cn2)cn1 [Example F7, N-(4′-((3-(2-hydroxyethoxy)-5-(methylsulfonyl)phenyl)amino)-5-(trifluoromethyl)-[2,3′-bipyridin]-6′-yl)acetamide] | 0.085 | 
16 | COCCOc1cc(Nc2cc(NC(C)=O)ncc2-c2ccc(C(F)(F)F)cn2)cc(S(C)(=O)=O)c1 [Example F8, N-(4′-((3-(2-methoxyethoxy)-5-(methylsulfonyl)phenyl)amino)-5-(trifluoromethyl)-[2,3′-bipyridin]-6′-yl)acetamide] | 0.087 | 
17 | CCOc1cc(Nc2cc(NC(C)=O)ncc2-c2ccc(C(F)(F)F)cn2)nc(S(C)(=O)=O)c1 [Example F10, N-(4′-((4-ethoxy-6-(methylsulfonyl)pyridin-2-yl)amino)-5-(trifluoromethyl)-[2,3′-bipyridin]-6′-yl)acetamide] | 0.04 | 
18 | CC(=O)Nc1cc(Nc2nc(S(C)(=O)=O)ccc2C2CCOCC2)c(-c2ccc3c(n2)OCC(C)(C)O3)cn1 [Example Q90, N-(5-(2,2-dimethyl-2,3-dihydro-[1,4]dioxino[2,3-b]pyridin-6-yl)-4-((6-(methylsulfonyl)-3-(tetrahydro-2H-pyran-4-yl)pyridin-2-yl)amino)pyridin-2-yl)acetamide] |  | IC50 (pSTAT5/GM-CSF): > 10000 nM; Selectivity fold (TYK2/JAK2) (pSTAT5/GM-CSF): >227 fold; IC50 [2]: 44 nM
19 | CC(=O)Nc1cc(Nc2cc(N3CCC4(CC4)C3)cc(S(C)(=O)=O)n2)c(-c2ccc3c(n2)OCC(C)(C)O3)cn1 [Example Q97, N-(5-(2,2-dimethyl-2,3-dihydro-[1,4]dioxino[2,3-b]pyridin-6-yl)-4-((6-(methylsulfonyl)-4-(5-azaspiro[2.4]heptan-5-yl)pyridin-2-yl)amino)pyridin-2-yl)acetamide] |  | IC50 (pSTAT5/GM-CSF): > 10000 nM; Selectivity fold (TYK2/JAK2) (pSTAT5/GM-CSF): >3039 fold; IC50 [2]: 3.29 nM
20 | CC(=O)Nc1cc(Nc2cc(-c3ccc(C#N)nc3)cc(S(C)(=O)=O)n2)c(-c2ccc3c(n2)OCC(C)(C)O3)cn1 [Example Q108, N-(4-((6-cyano-6′-(methylsulfonyl)-[3,4′-bipyridin]-2′-yl)amino)-5-(2,2-dimethyl-2,3-dihydro-[1,4]dioxino[2,3-b]pyridin-6-yl)pyridin-2-yl)acetamide] |  | IC50 (pSTAT5/GM-CSF): > 10000 nM; Selectivity fold (TYK2/JAK2) (pSTAT5/GM-CSF): >8474 fold; IC50 [2]: 1.18 nM
21 | CC(=O)Nc1cc(Nc2cc(-c3nccnc3C)cc(S(C)(=O)=O)n2)c(-c2ccc3c(n2)OCC(C)(C)O3)cn1 [Example Q110, N-(5-(2,2-dimethyl-2,3-dihydro-[1,4]dioxino[2,3-b]pyridin-6-yl)-4-((4-(3-methylpyrazin-2-yl)-6-(methylsulfonyl)pyridin-2-yl)amino)pyridin-2-yl)acetamide] |  | IC50 (pSTAT5/GM-CSF): > 10000 nM; Selectivity fold (TYK2/JAK2) (pSTAT5/GM-CSF): >9259 fold; IC50 [2]: 1.08 nM
